The structures appear in SMILES notation. Some results are limits rather than exact numbers.

Results on 36 compounds are retold here after patent US20240287080A1 (IDEAYA Biosciences Inc., priority 2021, published 2024).

T1 sequence (O75417 1-899): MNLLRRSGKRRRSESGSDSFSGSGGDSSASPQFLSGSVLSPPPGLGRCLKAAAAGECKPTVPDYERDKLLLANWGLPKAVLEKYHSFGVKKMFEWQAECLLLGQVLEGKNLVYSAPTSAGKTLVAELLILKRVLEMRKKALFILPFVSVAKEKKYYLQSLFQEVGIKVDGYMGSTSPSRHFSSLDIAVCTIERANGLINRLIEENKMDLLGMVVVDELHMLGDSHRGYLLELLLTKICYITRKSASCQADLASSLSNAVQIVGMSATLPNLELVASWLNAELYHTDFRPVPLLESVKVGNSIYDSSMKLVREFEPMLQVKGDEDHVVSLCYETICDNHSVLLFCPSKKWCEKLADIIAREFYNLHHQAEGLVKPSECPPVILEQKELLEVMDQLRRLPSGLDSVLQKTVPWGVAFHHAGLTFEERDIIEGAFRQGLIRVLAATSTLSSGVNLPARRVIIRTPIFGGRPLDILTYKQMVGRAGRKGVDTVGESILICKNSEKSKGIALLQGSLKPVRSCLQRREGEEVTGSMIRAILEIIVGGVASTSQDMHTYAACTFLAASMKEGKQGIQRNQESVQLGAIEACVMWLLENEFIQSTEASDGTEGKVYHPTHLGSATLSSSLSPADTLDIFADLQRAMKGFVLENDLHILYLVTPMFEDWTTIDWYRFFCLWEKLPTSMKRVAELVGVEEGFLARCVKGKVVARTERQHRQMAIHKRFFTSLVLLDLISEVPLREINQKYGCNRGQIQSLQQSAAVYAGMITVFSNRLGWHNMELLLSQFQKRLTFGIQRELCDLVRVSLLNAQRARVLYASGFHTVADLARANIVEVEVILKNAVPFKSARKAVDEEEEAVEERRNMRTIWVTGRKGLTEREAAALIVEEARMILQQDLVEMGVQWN

The first assay addresses T1, Pol theta (1-899) (Homo sapiens, UniProt O75417).
T1 construct: Pol theta (1-899) (5 nM) in assay buffer
Put plainly: Pol theta ATPase activity, NADH oxidation-coupled enzymatic assay (ATPase NADH coupling: Standard Screening: hPolQ). In kind it is biochemical. As to conditions: Pol theta (1-899) 5 nM, NADH oxidation-coupled ATPase assay; compounds of Table 3. Put shortly: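 Rates of ATP hydrolysis taken from 60-min A340 traces of NADH oxidation via PK/LDH coupling, then fit four-parameter for IC50, Hill slope and max inhibition. Enzyme (5 nM, 1-899) and compounds preincubated 15 min before ATP 100 μM and 50-thymine ssDNA 300 nM (stock, equal volume added).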
As usually defined, the IC50 is the concentration that gives 50% inhibition. As for `COc1nnc(NC(=O)c2cnc(C)cc2-c2cc(C)cc(F)c2)s1` [Example 405, 4-(3-fluoro-5-methylphenyl)-N-(5-methoxy-1,3,4-thiadiazol-2-yl)-6-methylpyridine-3-carboxamide], the IC50 is 0.2 to 0.5 µM. Take `COc1nnc(NC(=O)c2cnc(C)cc2-c2ccc3c(cnn3C)c2)s1` [Example 449, N-(5-methoxy-1,3,4-thiadiazol-2-yl)-6-methyl-4-(1-methyl-1H-indazol-5-yl)pyridine-3-carboxamide]: the IC50 was 0.5 to 1 µM. Same read-out and setting: in the case of `COc1nnc(NC(=O)c2ccncc2-c2cc(Cl)ncc2OC)s1` [Example 259, 2′-chloro-5′-methoxy-N-(5-methoxy-1,3,4-thiadiazol-2-yl)-[3,4′-bipyridine]-4-carboxamide] it was not above 0.2 µM. As to `COc1nnc(NC(=O)c2cnc(C)cc2-c2cccc(C)c2)s1` [Example 361, N-(5-methoxy-1,3,4-thiadiazol-2-yl)-6-methyl-4-(3-methylphenyl) pyridine-3-carboxamide], the IC50 lay in the range of 0.5 to 1 µM.

`COc1cnc(Br)cc1-c1cc(C)ncc1C(=O)Nc1nnc(O[C@H]2CC[C@H](CO)CC2)s1` [Example 315, 2′-bromo-N-(5-(((1r,4r)-4-(hydroxymethyl)cyclohexyl)oxy)-1,3,4-thiadiazol-2-yl)-5′-methoxy-6-methyl-[4,4′-bipyridine]-3-carboxamide] yielded an IC50 not above 0.2 µM.

The compound `COc1nnc(NC(=O)c2cnc(C)cc2-c2ccccc2C#N)s1` [Example 454, 4-(2-cyanophenyl)-N-(5-methoxy-1,3,4-thiadiazol-2-yl)-6-methylpyridine-3-carboxamide] yielded an IC50 of 1 to 10 µM.

`COc1nnc(NC(=O)c2cnc(C)cc2-c2ccc(OC(C)C)c(C#N)c2)s1` [Example 473, 4-[3-cyano-4-(propan-2-yloxy)phenyl]-N-(5-methoxy-1,3,4-thiadiazol-2-yl)-6-methylpyridine-3-carboxamide] registered an IC50 not above 0.2 µM. `COc1cnc(Cl)cc1-c1cc(C)ncc1C(=O)Nc1nnc(O[C@H]2C[C@H]3C[C@@H]2C[C@@H]3O)s1` (single isomer, unassigned) [Example 269] gave an IC50 not above 0.2 µM. For `COc1nnc(NC(=O)c2cnc(C)cc2-c2cncc(F)c2)s1` [Example 471, 5-fluoro-N-(5-methoxy-1,3,4-thiadiazol-2-yl)-6′-methyl-[3,4′-bipyridine]-3′-carboxamide], the IC50 fell in the range of 1 to 10 µM. Still for that read-out and setting: as for `COc1nnc(NC(=O)c2cc(OC(C)C)ncc2-c2cc(Cl)ncc2OC)s1` [Example 273, 2′-chloro-6-isopropoxy-5′-methoxy-N-(5-methoxy-1,3,4-thiadiazol-2-yl)-[3,4′-bipyridine]-4-carboxamide], the figure is 0.2 to 0.5 µM; as for `COc1cnc(Cl)cc1-c1cc(C)ncc1C(=O)Nc1nnc(O[C@@H]2C[C@H](F)CN(C3COC3)C2)s1` (single isomer, unassigned) [Example 260], not above 0.2 µM; as for `COc1cnc(Cl)cc1-c1cc(C)ncc1C(=O)Nc1nnc(OC2([C@H]3CCOC3)CC2)s1` (single isomer, unassigned) [Example 297], not above 0.2 µM. The same measure, in the same setting: in the case of `COc1nnc(NC(=O)c2cnc(C)cc2-c2cn[nH]c2)s1` [Example 451, N-(5-methoxy-1,3,4-thiadiazol-2-yl)-6-methyl-4-(1H-pyrazol-4-yl)nicotinamide] it was 1 to 10 µM; in that of `COc1nnc(NC(=O)c2cnc(C)cc2-c2ccc(S(C)(=O)=O)cc2)s1` [Example 371, N-(5-methoxy-1,3,4-thiadiazol-2-yl)-6-methyl-4-(4-(methylsulfonyl)phenyl)nicotinamide], 1 to 10 µM.

For the compound `COc1nnc(NC(=O)c2cnc(C)cc2-c2ccc3c(c2)NC(=O)CO3)s1` [Example 346, N-(5-methoxy-1,3,4-thiadiazol-2-yl)-6-methyl-4-(3-oxo-3,4-dihydro-2H-1,4-benzoxazin-6-yl)pyridine-3-carboxamide], the IC50 was 1 to 10 µM. The same measure, in the same setting: as for `COc1nnc(NC(=O)c2cnc(C)cc2-c2cccc3sccc23)s1` [Example 423, 4-(1-benzothiophen-4-yl)-N-(5-methoxy-1,3,4-thiadiazol-2-yl)-6-methylpyridine-3-carboxamide], the figure is 0.2 to 0.5 µM; as for `COc1cnc(Cl)cc1-c1cc(C)ncc1C(=O)Nc1nnc(OC2(C3CCOC3)CC2)s1` (stereo not drawn) [Example 288, 2′-chloro-5′-methoxy-6-methyl-N-(5-(1-(tetrahydrofuran-3-yl)cyclopropoxy)-1,3,4-thiadiazol-2-yl)-[4,4′-bipyridine]-3-carboxamide], not above 0.2 µM; as for `CCOc1cc(C(=O)Nc2nnc(OC)s2)c(-c2cc(Cl)ncc2OC)cn1` [Example 276, 2′-chloro-6-ethoxy-5′-methoxy-N-(5-methoxy-1,3,4-thiadiazol-2-yl)-[3,4′-bipyridine]-4-carboxamide], not above 0.2 µM. `COc1nnc(NC(=O)c2cc(F)c(C)cc2-c2cc(Cl)ncc2OC)s1` [Example 282, 2-(2-chloro-5-methoxypyridin-4-yl)-5-fluoro-N-(5-methoxy-1,3,4-thiadiazol-2-yl)-4-methyl benzamide] yielded an IC50 not above 0.2 µM.

The assay is the same for the next values; noted with them: Table 4; Pol theta (1-899) 5 nM, ATP, dT50 ssDNA.
Consider `COc1nnc(NC(=O)c2cnc(C)cc2-c2c(OC)cnc(C)c2F)s1` [Example 61, 3′-fluoro-5′-methoxy-N-(5-methoxy-1,3,4-thiadiazol-2-yl)-2′,6-dimethyl-(4,4′-bipyridine)-3-carboxamide], for which the IC50 is not above 0.2 µM. As for `COc1cnc(Cl)cc1-c1cc(C)ncc1C(=O)Nc1nnc(OCC(F)F)s1` [Example 18, 2′-chloro-N-(5-(2,2-difluoroethoxy)-1,3,4-thiadiazol-2-yl)-5′-methoxy-6-methyl-(4,4′-bipyridine)-3-carboxamide], the IC50 is not above 0.2 µM. On the same count and under the same terms, as for `COc1nnc(NC(=O)c2cn3ccnc3cc2-c2c(F)cccc2OC)s1` [Example 50, 7-(2-fluoro-6-methoxyphenyl)-N-(5-methoxy-1,3,4-thiadiazol-2-yl)imidazo(1,2-a)pyridine-6-carboxamide], the figure is 1 to 10 µM. Same read-out and setting: in the case of `COCCOc1nnc(NC(=O)c2ccncc2-c2ccccc2OC)s1` [Example 78] it was 0.5 to 1 µM. Compound `COc1cnc(Cl)cc1-c1cc(C)ncc1C(=O)Nc1nnc(OCC(C)(C)O)s1` [Example 14, 2′-chloro-N-(5-(2-hydroxy-2-methylpropoxy)-1,3,4-thiadiazol-2-yl)-5′-methoxy-6-methyl-(4,4′-bipyridine)-3-carboxamide] gave an IC50 not above 0.2 µM.

The assay is the same for the next values; noted with them: Table 5; Pol theta (1-899) 5 nM, ATP, dT50 ssDNA.
`COc1cnc(Cl)c(F)c1-c1cc(C)ncc1C(=O)Nc1nnc(O[C@H]2CC[C@@H](O)C2)s1` (racemic) [Example 170, rac-2′-chloro-3′-fluoro-N-(5-(((1R,3S)-3-hydroxycyclopentyl)oxy)-1,3,4-thiadiazol-2-yl)-5′-methoxy-6-methyl-(4,4′-bipyridine)-3-carboxamide] came in with an IC50 not above 0.2 µM. Still for that read-out and setting: as for `COc1cnc(Cl)cc1-c1cc(C)ncc1C(=O)Nc1nnc(O[C@H]2C[C@H](O)C2(C)C)s1` (single isomer, unassigned) [Example 184, 2′-chloro-N-(5-((1r,3r)-3-hydroxy-2,2-dimethylcyclobutoxy)-1,3,4-thiadiazol-2-yl)-5′-methoxy-6-methyl-(4,4′-bipyridine)-3-carboxamide], the figure is not above 0.2 µM; as for `COc1cnc(Cl)cc1-c1cc(C)ncc1C(=O)Nc1nnc(OC2CCCC2OC)s1` (stereo not drawn) [Example 163, 2′-chloro-5′-methoxy-N-(5-((2-methoxycyclopentyl)oxy)-1,3,4-thiadiazol-2-yl)-6-methyl-(4,4′-bipyridine)-3-carboxamide], not above 0.2 µM; as for `COc1cnc(C)c(F)c1-c1cc(C)ncc1C(=O)Nc1nnc(O[C@H]2CC[C@](C)(O)CC2)s1` (single isomer, unassigned) [Example 224, 3′-fluoro-N-(5-(((1r,4r)-4-hydroxy-4-methylcyclohexyl)oxy)-1,3,4-thiadiazol-2-yl)-5′-methoxy-2′,6-dimethyl-(4,4′-bipyridine)-3-carboxamide], not above 0.2 µM.

In turn, `COc1cnc(Cl)cc1-c1cc(C)ncc1C(=O)Nc1nnc(O[C@H]2C[C@@H](OC)C2)s1` (single isomer, unassigned) [Example 132, 2′-chloro-5′-methoxy-N-(5-((1s,3s)-3-methoxycyclobutoxy)-1,3,4-thiadiazol-2-yl)-6-methyl-(4,4′-bipyridine)-3-carboxamide] displayed an IC50 not above 0.2 µM.

`COc1cnc(Cl)cc1-c1cc(C)ncc1C(=O)Nc1nnc(O[C@]2(C)CCOC2)s1` (single isomer, unassigned) [Example 139] gave an IC50 of 0.2 to 0.5 µM.

Compound `COc1cnc(Cl)cc1-c1cc(C)ncc1C(=O)Nc1nnc(O[C@H]2COC3(CCCC3)C2)s1` (single isomer, unassigned) [Example 230] had an IC50 not above 0.2 µM. On the same count and under the same terms, in the case of `COc1cnc(C)c(F)c1-c1cc(C)ncc1C(=O)Nc1nnc(O[C@@H]2CCOC2)s1` [Example 206] it was not above 0.2 µM; in that of `COc1nnc(NC(=O)c2cnc(C)cc2-c2cc(Cl)c([S+](C)[O-])cc2OC)s1` (stereo not drawn) [Example 231, 4-(5-chloro-2-methoxy-4-(methylsulfinyl)phenyl)-N-(5-methoxy-1,3,4-thiadiazol-2-yl)-6-methylnicotinamide], not above 0.2 µM; in that of `COc1cnc(Cl)c(F)c1-c1cc(C)ncc1C(=O)Nc1nnc(O[C@H]2CC[C@H](O)C2)s1` (single isomer, unassigned) [Example 197], not above 0.2 µM. As to `COc1cnc(Cl)cc1-c1cc(C)ncc1C(=O)Nc1nnc(O[C@H]2CC[C@H]2O)s1` (racemic) [Example 112, rac-2′-chloro-N-(5-((1R,2S)-2-hydroxycyclobutoxy)-1,3,4-thiadiazol-2-yl)-5′-methoxy-6-methyl-(4,4′-bipyridine)-3-carboxamide], the IC50 was in the range of 0.2 to 0.5 µM.

In turn, `COc1cnc(Cl)cc1-c1cc(C)ncc1C(=O)Nc1nnc(O[C@H]2CCC[C@H](OC)C2)s1` (single isomer, unassigned) [Example 147] yielded an IC50 not above 0.2 µM.
